Columns and labels:
CHO-K1 = experiment: Toxicity of flavonoids: CHO-K1 transiently transfected with pSEAP2-Control, SEAP levels after 48 h; conditions: 0, 25, 50 μM, genistein cytotoxic only at 50 μM
Description: (A) Toxicity of flavonoids. CHO-K1 are transiently transfected with pSEAP2-Control, and cultivated in medium supplemented with different flavonoids (0, 25, 50 μM). SEAP levels are scored after 48 h.
CHO-K1 are transiently (co-)transfected with either pMG10 (PTtgR1-SEAP-pA) and pMG11 (PSV40-TtgA1-pA), to score regulation performance, or with pSEAP2-Control (PSV40-SEAP-pA), to assess compound-related cytotoxicity, and then cultivated for 48 h in medium containing different concentrations (0, 25, 50 μM) of specific flavonoid type compounds (berberine, butylparaben, genistein, luteolin, β-naphthol, naringenin, phloretin, phloridzin or quercetin) before SEAP production is profiled (FIG. 5A).
Wild-type Chinese hamster ovary cells (CHO-K1, ATCC: CCL-61) and their derivatives are cultivated in standard medium: ChoMaster® HTS (Cell Culture Technologies, Gravesano, Switzerland) supplemented with 5% (v/v) fetal calf serum (FCS, PAN Biotech GmbH, Aidenbach, Germany, Cat. No. 3302, Lot No. P251110) and 1% (v/v) penicillin/streptomycin solution (Sigma, St Louis, Mo., USA, Cat. No. P4458). Human embryonic kidney cells (HEK-293, Mitta B., et al., 2002, Nucleic Acids Res 30(21):e113), African green monkey kidney cells (COS-7, ATCC: CRL-1651), baby hamster kidney cells (BHK-21, ATCC: CCL10), human fibrosarcoma cells (HT-1080, ATCC: CCL-121), the human keratinocyte cell line HaCaT (Boukamp P., et al., 1988, J Cell Biol 106(3):761-771) and mouse fibroblasts (NIH/3T3, ATCC: CRL-1658) are cultured in Dulbecco's modified Eagle's medium (DMEM; Invitrogen, Cat. No. 52100-39) supplemented with 10% FCS (v/v) and 1% (v/v) penicillin/streptomycin solution. Primary human foreskin fibroblasts are cultivated in DMEM supplemented with 20% FCS (v/v) and 1% (v/v) penicillin/streptomycin solution and primary human foreskin keratinocytes are cultured in chemically defined serum-free keratinocyte medium (Invitrogen, Cat. No. 10744019). All cell types are cultivated at 37° C. in a 5% CO2-containing humidified atmosphere. For transient transfection of CHO-K1, 1 μg of total plasmid DNA (for co-transfection an equal amount of each plasmid) is transfected into 50,000 cells per well of a 24-well plate according to an optimized calcium phosphate protocol (Greber D., Fussenegger M., 2007, Biotechnol Bioeng 96(5):821-834). Plasmid DNA is diluted to a total volume of 25 μL 0.5 M CaCl2 solution, which is mixed with 25 μL 2×HBS solution (50 mM HEPES, 280 mM NaCl, 1.5 mM Na2HPO4, pH 7.1). After incubation for 15 min at room temperature, the precipitates are immediately added to the well and centrifuged onto the cells (5 min at 1,200×g) to increase transfection efficiency. After 3 h, the cells are treated with 0.5 mL glycerol solution (ChoMaster® HTS medium containing 15% glycerol) for 60 sec. After washing once with phosphate-buffered saline (PBS, Dulbecco's Phosphate-Buffered Saline; Invitrogen, Cat. No. 21600-0069), cells are cultivated in 0.5 mL standard ChoMaster® HTS medium in the presence or absence of different concentrations of phloretin. For transfection of BHK-21, COS-7 and HEK-293, plasmid DNA-Ca2PO4 precipitate is prepared and applied to the cells as described above. HEK-293 and COS-7 cells are washed once with PBS after 3 h incubation with the DNA-Ca2PO4 precipitate and subsequently cultivated in standard DMEM, while BHK-21 cells are incubated overnight with the precipitates and then cultivated in DMEM medium after being washed once with PBS. […]

TtgA1 (TtgR-VP16) = TtgA1 (TtgR-VP16) (Pseudomonas putida, UniProt Q9AIU0); experiment: Compatibility test: phloretin-responsive SEAP production of CHO-PEACE8; format: cell-based, Pseudomonas putida DOT-T1E; parameters: expressed in transfected cells; host or cells: CHO-K1 (transient pMG11 or pMG13); also HEK-293, BHK-21, COS-7, HaCaT, HT-1080, NIH/3T3, primary human fibroblasts and keratinocytes; conditions: Phl 50 μM, 48 h, 100 = no inducer
Sequence of TtgA1 (TtgR-VP16) (Q9AIU0 whole entry, added parts left off): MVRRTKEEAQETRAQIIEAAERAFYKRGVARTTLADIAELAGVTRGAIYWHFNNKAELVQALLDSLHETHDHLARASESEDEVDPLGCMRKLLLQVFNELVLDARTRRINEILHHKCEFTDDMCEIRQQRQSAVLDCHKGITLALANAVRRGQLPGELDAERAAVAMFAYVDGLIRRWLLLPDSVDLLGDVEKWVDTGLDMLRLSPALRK
Text: To evaluate the functional compatibility of PEACE with the established tetracycline— [TETOFF; Gossen M., Bujard H., 1992, Proc Natl Acad Sci USA 89(12):5547-5551] and macrolide— [EOFF; Weber W., et al., 2002, Nat Biotechnol 20(9):901-907] responsive expression circuits CHO-PEACE8 is transiently transfected, transgenic for phloretin-responsive SEAP expression, with either the TETOFF-(pSAM200, PSV40-tTA-pA; pBP99, PhCMV*-1-SAMY-pA) or the EOFF-(PWW35, PSV40-ET1-pA; pBP100, PETR3-SAMY-pA) system set to control the Bacillus stearothermophilus-derived secreted α-amylase (SAMY) in response to tetracycline and erythromycin, respectively. SEAP and SAMY expression are scored 48 h after cultivation of the transfected populations in the presence (50 μM; 2 μg/mL) or absence of the inducer molecules (phloretin, tetracycline, erythromycin).
The stable CHO-PEACE8 cell line, transgenic for phloretin-controlled SEAP expression, is constructed in two steps: (i) CHO-K1 cells are co-transfected with pMG11 (PSV40-TtgA1-pA) and pSV2neo (Clontech, Cat. No. 6172-1) at a ratio of 20:1 and clonal selection results in the cell line CHO-TtgA. (ii) CHO-TtgA is co-transfected with pMG10 (PTtgR1-SEAP-pA) and pPur (Clontech, Cat. No. 6156-1) (ratio of 20:1) and the phloretin-responsive SEAP-producing double-transgenic cell line CHO-PEACE8 is chosen after clonal selection. […] Reversibility of phloretin-mediated SEAP production is assessed by cultivating CHO-PEACE8 (100,000 cells/mL) for 144 h while alternating phloretin concentrations from 0 to 50 μM every 48 h.

O=C(CCc1ccc(O)cc1)c1c(O)cc(O)cc1O [phloretin, 3-[4-hydroxyphenyl]-1-[2,4,6-trihydroxyphenyl]-1-propanone]
compound-related cytotoxicity / cell viability (CHO-K1): do not reduce cell viability
Relative SEAP Production (%) (TtgA1 (TtgR-VP16); CHO-PEACE8 transiently transfected with macrolide-responsive control system, EM 2 μg/mL): 2.0 ± 1.2%
Relative SEAP Production (%) (TtgA1 (TtgR-VP16); CHO-PEACE8 transiently transfected with tetracycline-responsive control system, Tet 2 μg/mL): 2.2 ± 0.2%
